Like-named read-outs stand apart in the source and are kept apart here.
Experiments:
Plasma stability = conditions: human plasma, drug 1.00 μM, 37° C.
Marpol virus = test: organism not typed; type: cell-based
ZIKV = test: microbe, parasite or virus in culture; type: cell-based, Zika virus; conditions: Zika virus, Vero 76
Huh-7 = test: EIDD-2749 cytotoxicity; type: cell-based, human; conditions: Huh-7 cells
Murine Norovirus = test: microbe, parasite or virus in culture; type: cell-based; conditions: Norwalk virus, RAW264.7
Flu A H3N2 = test: microbe, parasite or virus in culture; type: cell-based, influenza A virus; conditions: Influenza A virus, H3N2, MDCK
CEM = test: EIDD-2749 cytotoxicity; type: cell-based; conditions: CEM cells
Vero 76 cells = conditions: African green monkey
HRV-14 = test: microbe, parasite or virus in culture; type: cell-based, human rhinovirus
Flu B = test: microbe, parasite or virus in culture; type: cell-based, influenza B virus; conditions: Influenza B virus, MDCK
MA-104 cells = conditions: African green monkey
Human Norovirus = test: microbe, parasite or virus in culture; type: cell-based; conditions: HG23
HG23 cells = test: Cytotoxicity (CC50) run with the norovirus assay
Heartland virus = test: microbe, parasite or virus in culture; type: cell-based; conditions: Vero

SMILES: O=c1ccn([C@@H]2O[C@](F)(CO)[C@@H](O)[C@H]2O)c(=O)[nH]1 [EIDD-2749, 4′-fluorouridine]
- half-life (Plasma stability): 26 min
- EC50 (Marpol virus): 57 µM
- EC50 (Marpol virus; Vero C1008): 95 µM
- EC90 (ZIKV): > 380 µM
- CC50 (Huh-7): > 400 µM
- EC50 (Murine Norovirus): 2.2 µM
- EC90 (Murine Norovirus): 7.2 µM
- EC50 (Flu A H3N2): < 0.38 µM
- CC50 (CEM): 107 µM
- CC50 (Vero 76 cells): > 380 µM
- EC50 (HRV-14): 1.14 µM
- EC50 (HRV-14; Rhinovirus B, HRV14): 1.22 µM
- EC50 (Flu B): < 0.38 µM
- CC50 (MA-104 cells): > 380 µM
- EC50 (Human Norovirus): 2.7 µM
- EC90 (Human Norovirus): 9.3 µM
- CC50 (HG23 cells): 100 µM
- EC90 (Heartland virus): 122 µM

Reference: patent publication US20260124226A1 (priority 2023, published 2026)
